pKi: −log10 of the molar value.
Experiments:
[1] = biological target: Sigma 2 receptor
[2] = biological target: D(3) dopamine receptor (Rattus norvegicus, UniProt P19020); assay: biochemical
[3] = biological target: D(2) dopamine receptor (Rattus norvegicus, UniProt P61169); assay: biochemical
[4] = biological target: T1, D(4) dopamine receptor (Homo sapiens, UniProt P21917)
T1 sequence (P21917 whole entry): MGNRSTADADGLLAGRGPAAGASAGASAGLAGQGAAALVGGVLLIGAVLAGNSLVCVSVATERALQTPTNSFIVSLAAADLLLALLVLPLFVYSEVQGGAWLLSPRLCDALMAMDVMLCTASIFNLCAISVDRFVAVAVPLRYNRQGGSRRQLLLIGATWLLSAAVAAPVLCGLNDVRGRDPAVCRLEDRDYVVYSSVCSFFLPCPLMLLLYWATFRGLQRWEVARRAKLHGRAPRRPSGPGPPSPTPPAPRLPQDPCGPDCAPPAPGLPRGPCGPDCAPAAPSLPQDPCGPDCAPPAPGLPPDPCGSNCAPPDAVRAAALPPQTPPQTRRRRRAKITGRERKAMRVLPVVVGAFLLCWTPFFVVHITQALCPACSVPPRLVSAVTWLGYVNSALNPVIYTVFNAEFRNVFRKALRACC

Chain of D(2) dopamine receptor (P61169 whole entry): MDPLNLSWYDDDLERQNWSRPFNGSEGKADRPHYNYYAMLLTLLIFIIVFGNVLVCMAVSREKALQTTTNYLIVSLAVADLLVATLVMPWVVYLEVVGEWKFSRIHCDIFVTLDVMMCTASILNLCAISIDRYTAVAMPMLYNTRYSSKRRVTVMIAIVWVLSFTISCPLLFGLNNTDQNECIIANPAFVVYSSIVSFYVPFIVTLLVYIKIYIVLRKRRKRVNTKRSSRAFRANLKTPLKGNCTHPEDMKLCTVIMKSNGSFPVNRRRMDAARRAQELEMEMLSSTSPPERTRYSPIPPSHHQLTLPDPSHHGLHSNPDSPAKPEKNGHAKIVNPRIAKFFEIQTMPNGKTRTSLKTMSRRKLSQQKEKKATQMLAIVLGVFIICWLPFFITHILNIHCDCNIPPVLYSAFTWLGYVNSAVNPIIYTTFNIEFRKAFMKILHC
Chain of D(3) dopamine receptor (P19020 whole entry): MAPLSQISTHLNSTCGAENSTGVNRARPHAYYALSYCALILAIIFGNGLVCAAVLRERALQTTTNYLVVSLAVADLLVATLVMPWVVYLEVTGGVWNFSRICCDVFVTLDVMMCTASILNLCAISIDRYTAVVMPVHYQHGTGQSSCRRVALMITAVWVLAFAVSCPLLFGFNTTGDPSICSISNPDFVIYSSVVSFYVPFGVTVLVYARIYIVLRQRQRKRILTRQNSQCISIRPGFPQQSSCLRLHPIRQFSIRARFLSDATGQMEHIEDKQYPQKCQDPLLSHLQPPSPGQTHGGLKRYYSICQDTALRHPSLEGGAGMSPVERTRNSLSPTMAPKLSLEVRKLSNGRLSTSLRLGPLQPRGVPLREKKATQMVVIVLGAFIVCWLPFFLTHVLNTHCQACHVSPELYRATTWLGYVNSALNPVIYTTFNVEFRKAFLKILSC

SMILES | pKi [1] | pKi [2] | pKi [3] | pKi [4]
COc1c(C(=O)NC2CCN(C3C4CC5CC(C4)CC3C5)C2)cc(Br)c2ccccc12 (stereo unspecified) | 7.15 | 9.40 |  | 
COc1cc2c(cc1OC)CN(CCCCNC(=O)c1cc(Br)c3ccccc3c1OC)CC2 | 7.75 |  |  | 
COc1cc2c(cc1OC)CN(CCNC(=O)c1cc(Br)ccc1OC)CC2 | 7.91 |  |  | 
COc1cc2c(cc1OC)CN(Cc1ccc(-c3cc(Br)cc(OC)c3OC)[nH]1)CC2 |  | 8.41 | 7.48 | 
COc1cc(Br)cc(-c2ccc(CN3CCc4ccccc4C3)[nH]2)c1OC |  | 8.42 | 7.52 | 
COc1c(C(=O)NC[C@H]2CCCN2C2CCCCC2)cc(Br)c2ccccc12 | 7.60 |  |  | 
COc1cc2c(cc1OC)CN(CCCCNC(=O)c1cc(Br)cc(OC)c1OC)CC2 | 8.09 |  |  | 
COc1cc(Br)cc(C(=O)NCCN2CCc3ccccc3C2)c1OC | 6.14 |  |  | 7.32
O=C(NCCCCN1CCN(c2cccc(Cl)c2Cl)CC1)c1cccc2c1-c1ccccc1C2=O |  | 8.85 | 7.05 | 
COc1cc(Br)cc(C(=O)NCCCCN2CCN(c3cccc(Cl)c3Cl)CC2)c1OC | 7.12 |  |  | 6.10
COc1cc2c(cc1OC)CN(CCNC(=O)c1cc(C)ccc1OC)CC2 | 7.88 |  |  | 
COc1cc2c(cc1OC)CN(CCNC(=O)c1cc(Br)c3ccccc3c1OC)CC2 | 7.67 |  |  | 
COc1ccc(Br)cc1C(=O)NCCN1CCc2ccccc2C1 | 7.05 |  |  | 
COc1c(C(=O)NCCN2CCc3ccccc3C2)cc(Br)c2ccccc12 | 7.32 |  |  | 
O=C(NCCCCN1CCN(c2cccc(Cl)c2Cl)CC1)c1ccc2c(c1)Cc1ccccc1-2 |  | 8.85 | 6.66 | 
COc1cc2c(cc1OC)CN(CCNC(=O)c1cc(Br)cc(OC)c1OC)CC2 | 7.79 |  |  | 6.58
COc1c(C(=O)NCCN2CCN(c3cccc(Cl)c3Cl)CC2)cc(Br)c2ccccc12 |  | 8.10 | < 5.00 | 
